Source: patent US10870638B2, “Pyridazinone compound or its salt, and herbicide containing it” (ISHIHARA SANGYO KAISHA, LTD., priority 2016, dated 2020)

Columns and labels:
Assay in all cases: Test Example 1: foliar treatment, growth inhibition rate on 14th day
Assay type in all cases: in vivo
Settings in all cases: active ingredient amount 31 g/ha, 14th day after application
corn (Zea mays L.) = system: corn (Zea mays L.)
Text: (§1) Upland field soil was put into a 1/300,000 hectare pot, and seeds of various plants were sown. When the respective plants reached predetermined leaf stage ((1) barnyardgrass (Echinochloa crus-[…].): 0.5 to 2.9 leaf stage, (2) crabgrass (Digitaria sanquinalis L.): 0.5 to 3.0 leaf stage, (3) green foxtail (Setaria viridis L.): 0.5 to 3.2 leaf stage, (4) wild oat (Avena fatua L.): 0.4 to 1.2 leaf stage, (5) italian ryegrass (Lolium multiflorum Lam.): 0.4 to 2.0 leaf stage, (6) redroot pigweed (Amaranthus retroflexus L.): cotyledon stage to 2.2 leaf stage, (7) rice (Oryza sativa L.): 0.2 to 2.7 leaf stage, (8) corn (Zea mays L.): 1.7 to 3.6 leaf stage, (9) wheat (Triticum aestivum L.): 1.3 to 2.3 leaf stage, (10) soybean (Glycine max Merr.); primary leaf stage), wettable powders or emulsifiable concentrates of the compounds of the present invention prepared in accordance with a conventional preparation method, were weighed so as to achieve the prescribed active ingredient amounts, and diluted with water in an amount corresponding to 1,000 liters per 1 hectare (containing 0.1 vol % of an agricultural spreader (surfactant WK manufactured by MARUWA BIOCHEMICAL Co., Ltd.)), and the spray solutions thus prepared were applied for foliar treatment by a small sprayer. On the 14th day after the application, the state of growth of the respective plants was visually observed, and the herbicidal effect was evaluated by a growth inhibition rate (%) of 0 (equivalent to the non-treated area) to 100 (complete kill).

[1] = system: soybean (Glycine max Merr.)
Text: as §1

[2] = system: redroot pigweed (Amaranthus retroflexus L.)
Text: as §1

[3] = system: italian ryegrass (Lolium multiflorum Lam.)
Text: as §1

[4] = system: barnyardgrass (Echinochloa crus-qalli L.)
Text: as §1

[5] = system: crabgrass (Digitaria sanquinalis L.)
Text: as §1

rice (Oryza sativa L.) = system: rice (Oryza sativa L.)
Text: as §1

[6] = system: wheat (Triticum aestivum L.)
Text: as §1

[7] = system: green foxtail (Setaria viridis L.)
Text: as §1

[8] = system: wild oat (Avena fatua L.)
Text: as §1

[9] = visual, 0 = non-treated, 100 = complete kill

SMILES: Cc1ccc(Oc2ccc3cc(Br)ccc3n2)cc1-c1c(O)c(C)nn(C)c1=O [Compound 2-94]
- Growth inhibition rate (%) Corn (corn (Zea mays L.)): 0%
- Growth inhibition rate (%) Soybean [1]: 0%
- Growth inhibition rate (%) Redroot pigweed [2]: 0%
- Growth inhibition rate (%) Italian ryegrass [3]: 20%
- Growth inhibition rate (%) Barnyardgrass [4]: 100%
- Growth inhibition rate (%) Crabgrass [5]: 0%
- Growth inhibition rate (%) Rice (rice (Oryza sativa L.)): 0%
- Growth inhibition rate (%) Wheat [6]: 0%
- Growth inhibition rate (%) Green foxtail [7]: 100%
- Growth inhibition rate (%) Wild oat [8]: 40%

SMILES: CC(=O)Oc1c(C)nn(C)c(=O)c1-c1cc(Oc2ncc(Cl)cc2C(F)(F)F)ccc1C [Compound 2-125]
- Growth inhibition rate (%) Corn (corn (Zea mays L.)): 90%
- Growth inhibition rate (%) Soybean [1]: 0%
- Growth inhibition rate (%) Redroot pigweed [2]: 0%
- Growth inhibition rate (%) Italian ryegrass [3]: 93%
- Growth inhibition rate (%) Barnyardgrass [4]: 100%
- Growth inhibition rate (%) Crabgrass [5]: 90%
- Growth inhibition rate (%) Rice (rice (Oryza sativa L.)): 70%
- Growth inhibition rate (%) Wheat [6]: 50%
- Growth inhibition rate (%) Green foxtail [7]: 50%
- Growth inhibition rate (%) Wild oat [8]: 90%

SMILES: Cc1ccc(Oc2cnc3cc(Cl)ccc3n2)cc1-c1c(OC(=O)N2CCOCC2)c(C)nn(C)c1=O [Compound 3-39]
- Growth inhibition rate (%) Corn (corn (Zea mays L.)): 15%
- Growth inhibition rate (%) Soybean [1]: 0%
- Growth inhibition rate (%) Redroot pigweed [2]: 0%
- Growth inhibition rate (%) Italian ryegrass [3]: 0%
- Growth inhibition rate (%) Barnyardgrass [4]: 88%
- Growth inhibition rate (%) Crabgrass [5]: 0%
- Growth inhibition rate (%) Rice (rice (Oryza sativa L.)): 0%
- Growth inhibition rate (%) Wheat [6]: 0%
- Growth inhibition rate (%) Green foxtail [7]: 95%
- Growth inhibition rate (%) Wild oat [8]: 0%

SMILES: Cc1ccc(Oc2cnc3cc(Cl)ccc3n2)cc1-c1c(OC(=O)c2ccccc2)c(C)nn(C)c1=O [Compound 3-38]
- Growth inhibition rate (%) Corn (corn (Zea mays L.)): 30%
- Growth inhibition rate (%) Soybean [1]: 25%
- Growth inhibition rate (%) Redroot pigweed [2]: 20%
- Growth inhibition rate (%) Italian ryegrass [3]: 99%
- Growth inhibition rate (%) Barnyardgrass [4]: 100%
- Growth inhibition rate (%) Crabgrass [5]: 100%
- Growth inhibition rate (%) Rice (rice (Oryza sativa L.)): 80%
- Growth inhibition rate (%) Wheat [6]: 98%
- Growth inhibition rate (%) Green foxtail [7]: 100%
- Growth inhibition rate (%) Wild oat [8]: 98%

SMILES: CCOC(=O)OC(C)Oc1c(C)nn(C)c(=O)c1-c1cc(Oc2ncc(C(F)(F)F)cc2Cl)ccc1C (centres unmarked) [1-131]
- Growth inhibition rate (%) Corn (corn (Zea mays L.)): 80%
- Growth inhibition rate (%) Soybean [1]: 0%
- Growth inhibition rate (%) Redroot pigweed [2]: 0%
- Growth inhibition rate (%) Italian ryegrass [3]: 83%
- Growth inhibition rate (%) Barnyardgrass [4]: 100%
- Growth inhibition rate (%) Crabgrass [5]: 100%
- Growth inhibition rate (%) Rice (rice (Oryza sativa L.)): 30%
- Growth inhibition rate (%) Wheat [6]: 60%
- Growth inhibition rate (%) Green foxtail [7]: 93%
- Growth inhibition rate (%) Wild oat [8]: 93%

SMILES: COCCOCOc1c(C)nn(C)c(=O)c1-c1cc(Oc2cnc3cc(Cl)ccc3n2)ccc1C [Compound 3-75]
- Growth inhibition rate (%) Corn (corn (Zea mays L.); [9]): 10%
- Growth inhibition rate (%) Soybean [1, 9]: 0%
- Growth inhibition rate (%) Redroot pigweed [2, 9]: 0%
- Growth inhibition rate (%) Italian ryegrass [3, 9]: 98%
- Growth inhibition rate (%) Barnyardgrass [4, 9]: 99%
- Growth inhibition rate (%) Crabgrass [5, 9]: 95%
- Growth inhibition rate (%) Rice (rice (Oryza sativa L.); [9]): 0%
- Growth inhibition rate (%) Wheat [6, 9]: 95%
- Growth inhibition rate (%) Green foxtail [7, 9]: 99%
- Growth inhibition rate (%) Wild oat [8, 9]: 98%

SMILES: CC(=O)Oc1c(C)nn(C)c(=O)c1-c1cc(Oc2ncc(C#N)cc2Cl)ccc1C [Compound 2-60]
- Growth inhibition rate (%) Corn (corn (Zea mays L.)): 50%
- Growth inhibition rate (%) Soybean [1]: 0%
- Growth inhibition rate (%) Redroot pigweed [2]: 0%
- Growth inhibition rate (%) Italian ryegrass [3]: 40%
- Growth inhibition rate (%) Barnyardgrass [4]: 88%
- Growth inhibition rate (%) Crabgrass [5]: 85%
- Growth inhibition rate (%) Rice (rice (Oryza sativa L.)): 50%
- Growth inhibition rate (%) Wheat [6]: 0%
- Growth inhibition rate (%) Green foxtail [7]: 75%
- Growth inhibition rate (%) Wild oat [8]: 50%

SMILES: Cc1ccc(Oc2cnc3cc(Cl)ccc3n2)cc1-c1c(OC(C)OC(=O)OC2CCCCC2)c(C)nn(C)c1=O (centres unmarked) [Compound 3-76]
- Growth inhibition rate (%) Corn (corn (Zea mays L.); [9]): 0%
- Growth inhibition rate (%) Soybean [1, 9]: 0%
- Growth inhibition rate (%) Redroot pigweed [2, 9]: 0%
- Growth inhibition rate (%) Italian ryegrass [3, 9]: 10%
- Growth inhibition rate (%) Barnyardgrass [4, 9]: 93%
- Growth inhibition rate (%) Crabgrass [5, 9]: 30%
- Growth inhibition rate (%) Rice (rice (Oryza sativa L.); [9]): 0%
- Growth inhibition rate (%) Wheat [6, 9]: 0%
- Growth inhibition rate (%) Green foxtail [7, 9]: 93%
- Growth inhibition rate (%) Wild oat [8, 9]: 0%
